Test results: ChEMBL document CHEMBL5233233, “Histone deacetylase 3 (HDAC3) inhibitors as anticancer agents: A review” (Eur J Med Chem, 2020)
Values belong to the compound of their own block, whether it stands above or below them.

Experiments:
[1] = target: T1, Histone deacetylase 3 (Homo sapiens, UniProt O15379); test: Inhibition of human recombinant HDAC3 expressed in baculovirus by using Boc-L-Lys(Ac)-AMC as substrate measured after 24 hrs by fluorescence based analysis
[2] = target: T2, Histone deacetylase 1 (Homo sapiens, UniProt Q13547); test: Inhibition of human recombinant HDAC1 expressed in baculovirus by using Boc-L-Lys(Ac)-AMC as substrate measured after 24 hrs by fluorescence based analysis
T2 sequence (Q13547 whole entry): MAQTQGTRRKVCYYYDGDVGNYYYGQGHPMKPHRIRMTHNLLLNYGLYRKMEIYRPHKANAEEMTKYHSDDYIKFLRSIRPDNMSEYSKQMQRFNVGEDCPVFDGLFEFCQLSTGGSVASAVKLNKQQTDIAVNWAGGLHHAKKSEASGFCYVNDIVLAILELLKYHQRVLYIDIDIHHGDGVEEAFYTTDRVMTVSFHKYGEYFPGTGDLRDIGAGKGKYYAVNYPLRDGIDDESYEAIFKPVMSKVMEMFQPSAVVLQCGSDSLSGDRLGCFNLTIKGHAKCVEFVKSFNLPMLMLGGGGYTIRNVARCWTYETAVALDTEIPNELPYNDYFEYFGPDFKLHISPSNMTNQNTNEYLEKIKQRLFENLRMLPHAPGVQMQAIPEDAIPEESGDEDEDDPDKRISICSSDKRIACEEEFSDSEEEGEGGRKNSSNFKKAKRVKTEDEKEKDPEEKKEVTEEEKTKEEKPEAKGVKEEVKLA

[3] = target: T3, Histone deacetylase 8 (Homo sapiens, UniProt Q9BY41); test: Inhibition of human recombinant HDAC8 expressed in Escherichia coli BL21 (DE3) cells by using Boc-L-Lys(Ac)-AMC as substrate measured after 24 hrs by fluorescence based analysis
T3 sequence (Q9BY41 whole entry): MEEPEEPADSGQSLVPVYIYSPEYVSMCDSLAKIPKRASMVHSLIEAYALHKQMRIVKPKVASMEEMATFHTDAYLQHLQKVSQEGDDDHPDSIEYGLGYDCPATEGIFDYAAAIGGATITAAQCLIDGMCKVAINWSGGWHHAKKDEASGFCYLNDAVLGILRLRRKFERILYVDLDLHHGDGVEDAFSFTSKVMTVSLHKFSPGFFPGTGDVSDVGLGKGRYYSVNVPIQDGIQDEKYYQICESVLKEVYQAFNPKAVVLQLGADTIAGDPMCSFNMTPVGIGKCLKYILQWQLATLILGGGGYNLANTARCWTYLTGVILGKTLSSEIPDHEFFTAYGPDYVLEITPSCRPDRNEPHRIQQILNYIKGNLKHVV

[4] = target: T4, Histone deacetylase 2 (Homo sapiens, UniProt Q92769); test: Inhibition of human recombinant HDAC2 expressed in baculovirus by using Boc-L-Lys(Ac)-AMC as substrate measured after 24 hrs by fluorescence based analysis
T4 sequence (Q92769 whole entry): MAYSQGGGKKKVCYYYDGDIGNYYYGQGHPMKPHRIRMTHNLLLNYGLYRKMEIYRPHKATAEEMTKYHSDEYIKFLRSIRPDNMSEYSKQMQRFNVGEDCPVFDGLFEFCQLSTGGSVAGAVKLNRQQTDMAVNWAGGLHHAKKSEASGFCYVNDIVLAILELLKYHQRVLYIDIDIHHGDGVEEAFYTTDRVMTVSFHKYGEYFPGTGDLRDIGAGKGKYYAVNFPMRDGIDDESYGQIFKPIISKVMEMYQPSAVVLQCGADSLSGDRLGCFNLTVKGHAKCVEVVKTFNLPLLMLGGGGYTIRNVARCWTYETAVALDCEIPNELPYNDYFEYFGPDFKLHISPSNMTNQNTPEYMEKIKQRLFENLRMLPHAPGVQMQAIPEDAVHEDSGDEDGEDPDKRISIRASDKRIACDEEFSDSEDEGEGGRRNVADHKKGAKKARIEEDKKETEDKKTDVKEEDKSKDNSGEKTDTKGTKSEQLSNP

[5] = target: T4, Histone deacetylase 2; test: Inhibition of human HDAC2 using human HeLa cell nuclear extract at 1 uM measured after 60 mins by fluorescence assay; assay type: subcellular, Nucleus
[6] = target: T2, Histone deacetylase 1; test: Inhibition of human HDAC1 using human HeLa cell nuclear extract at 1 uM measured after 60 mins by fluorescence assay; assay type: subcellular, Nucleus
[7] = target: T2, Histone deacetylase 1; test: Inhibition of HDAC1 (unknown origin) using Boc-Lys (Ac)-AMC as substrate measured after 30 mins by fluorescence based analysis
[8] = target: T5, Protein deacetylase HDAC6 (Homo sapiens, UniProt Q9UBN7); test: Inhibition of HDAC6 (unknown origin) using Boc-Lys (Ac)-AMC as substrate measured after 30 mins by fluorescence based analysis
T5 sequence (Q9UBN7 whole entry): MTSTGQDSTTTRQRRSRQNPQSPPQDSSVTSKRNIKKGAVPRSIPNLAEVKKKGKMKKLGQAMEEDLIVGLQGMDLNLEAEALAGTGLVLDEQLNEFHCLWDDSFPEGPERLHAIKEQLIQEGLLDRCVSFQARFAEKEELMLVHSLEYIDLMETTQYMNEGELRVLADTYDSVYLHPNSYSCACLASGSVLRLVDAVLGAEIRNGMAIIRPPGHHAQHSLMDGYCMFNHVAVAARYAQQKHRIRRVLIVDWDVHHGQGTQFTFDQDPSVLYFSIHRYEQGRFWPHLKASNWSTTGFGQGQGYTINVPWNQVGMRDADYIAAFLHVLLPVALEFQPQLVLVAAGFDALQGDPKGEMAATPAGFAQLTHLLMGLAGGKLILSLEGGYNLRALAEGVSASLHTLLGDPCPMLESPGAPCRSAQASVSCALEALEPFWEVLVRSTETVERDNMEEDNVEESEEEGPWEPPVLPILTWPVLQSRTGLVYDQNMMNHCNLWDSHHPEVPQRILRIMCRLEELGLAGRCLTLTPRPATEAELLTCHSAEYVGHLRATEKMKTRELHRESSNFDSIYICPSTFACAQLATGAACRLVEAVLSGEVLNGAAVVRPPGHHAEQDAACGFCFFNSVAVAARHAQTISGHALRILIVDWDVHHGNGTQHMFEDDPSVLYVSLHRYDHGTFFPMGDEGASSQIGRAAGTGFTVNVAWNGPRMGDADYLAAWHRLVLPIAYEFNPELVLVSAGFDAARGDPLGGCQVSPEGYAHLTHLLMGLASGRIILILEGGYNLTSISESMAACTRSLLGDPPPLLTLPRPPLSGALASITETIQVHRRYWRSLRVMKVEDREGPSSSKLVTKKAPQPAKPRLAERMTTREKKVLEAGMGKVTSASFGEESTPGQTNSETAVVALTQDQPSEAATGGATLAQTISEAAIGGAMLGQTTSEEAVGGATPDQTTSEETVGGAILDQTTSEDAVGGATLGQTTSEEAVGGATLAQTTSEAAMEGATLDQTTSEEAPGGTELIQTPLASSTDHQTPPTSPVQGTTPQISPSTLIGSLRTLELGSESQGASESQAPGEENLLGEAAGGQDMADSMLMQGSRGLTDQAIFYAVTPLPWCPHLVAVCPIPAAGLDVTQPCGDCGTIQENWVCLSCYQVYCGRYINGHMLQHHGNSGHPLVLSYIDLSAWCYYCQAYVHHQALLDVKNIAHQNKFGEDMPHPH

[9] = target: T1, Histone deacetylase 3; test: Inhibition of HDAC3 (unknown origin) using Boc-Lys (Ac)-AMC as substrate measured after 30 mins by fluorescence based analysis
[10] = target: T1, Histone deacetylase 3; test: Inhibition of human HDAC3 using fluorogenic as substrate measured after 30 mins by fluorescence based analysis
[11] = target: Histone deacetylase; test: Inhibition of human HDAC using human HeLa cell nuclear extract measured after 60 mins by fluorescence assay; assay type: subcellular, Nucleus
[12] = target: T1, Histone deacetylase 3; test: Inhibition of human HDAC3 using human HeLa cell nuclear extract at 1 uM measured after 60 mins by fluorescence assay; assay type: subcellular, Nucleus
[13] = target: T2, Histone deacetylase 1; test: Inhibition of HDAC1 (unknown origin) using acetylated 7-amino-4-methylcoumarin (AMC) as peptide substrate measured after 20 mins by fluorescence based analysis
[14] = target: T4, Histone deacetylase 2; test: Inhibition of HDAC2 (unknown origin) using acetylated 7-amino-4-methylcoumarin (AMC) as peptide substrate measured after 20 mins by fluorescence based analysis
[15] = target: T1, Histone deacetylase 3; test: Inhibition of HDAC3 (unknown origin) using acetylated 7-amino-4-methylcoumarin (AMC) as peptide substrate measured after 20 mins by fluorescence based analysis
[16] = target: T2, Histone deacetylase 1; test: Inhibition of human recombinant HDAC1 using (FAM)-labeled acetylated peptide substrate at 1 uM incubated for 17 hrs by fluorescence based analysis
[17] = target: T4, Histone deacetylase 2; test: Inhibition of human recombinant HDAC2 using (FAM)-labeled acetylated peptide substrate at 1 uM incubated for 17 hrs by fluorescence based analysis
[18] = target: T5, Protein deacetylase HDAC6; test: Inhibition of human recombinant HDAC6 using (FAM)-labeled acetylated peptide substrate at 1 uM incubated for 17 hrs by fluorescence based analysis
[19] = target: T3, Histone deacetylase 8; test: Inhibition of human recombinant HDAC8 using (FAM)-labeled acetylated peptide substrate at 1 uM incubated for 17 hrs by fluorescence based analysis
[20] = target: T4, Histone deacetylase 2; test: Inhibition of HDAC2 (unknown origin)
[21] = target: T2, Histone deacetylase 1; test: Inhibition of HDAC1 (unknown origin)

T1 sequence (O15379 whole entry): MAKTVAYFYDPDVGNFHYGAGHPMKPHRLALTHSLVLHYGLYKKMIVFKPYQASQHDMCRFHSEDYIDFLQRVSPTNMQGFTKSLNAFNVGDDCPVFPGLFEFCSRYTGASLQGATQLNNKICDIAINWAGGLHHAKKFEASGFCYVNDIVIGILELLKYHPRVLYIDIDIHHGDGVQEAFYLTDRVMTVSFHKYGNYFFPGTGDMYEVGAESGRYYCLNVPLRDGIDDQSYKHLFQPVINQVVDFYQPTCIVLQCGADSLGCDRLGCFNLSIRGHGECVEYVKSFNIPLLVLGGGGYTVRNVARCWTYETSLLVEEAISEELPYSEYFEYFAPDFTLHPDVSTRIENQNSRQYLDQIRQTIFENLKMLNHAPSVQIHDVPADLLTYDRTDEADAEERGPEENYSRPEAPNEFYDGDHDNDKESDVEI

Compound: O=C(CCCCCCNCc1ccc2ccccc2c1)NO
IC50 [1]: 68 nM
IC50 [2]: 39 nM
IC50 [3]: 320 nM
IC50 [4]: 320 nM

Compound: Cc1noc(C)c1-c1ccc2c(c1)c(Cc1ccc(F)cc1)cn2CCCCCCC(=O)NO
IC50 [5]: 298 nM
IC50 [6]: 181 nM

Compound: O=C(NO)c1ccc(NC(=O)[C@@H](NC(=O)c2ccc3ccccc3c2)c2ccccc2)cc1
IC50 [10]: 16.8 nM
IC50 [11]: 14.3 nM

Compound: Cc1noc(C)c1-c1ccc2c(c1)c(Cc1cccc(C(F)(F)F)c1)cn2CCCCCCC(=O)NO
IC50 [12]: 13 nM
IC50 [5]: 79 nM
IC50 [6]: 31 nM

Compound: O=C(NNCCCc1ccccc1)c1ccc(Br)cc1
IC50 [13]: > 50000 nM
IC50 [14]: > 50000 nM
IC50 [15]: 24200 nM

Compound: Cc1cc(CNCCCCCCC(=O)NO)ccc1F
IC50 [1]: 190 nM
IC50 [2]: 140 nM
IC50 [3]: 2800 nM
IC50 [4]: 790 nM

Compound: COc1ccc(CNCCCCCCC(=O)NO)cc1OC
IC50 [1]: 180 nM
IC50 [2]: 210 nM
IC50 [3]: 1800 nM
IC50 [4]: 1800 nM

Compound: O=C(CCCCCCNCc1ccc(F)cc1)NO
IC50 [1]: 240 nM
IC50 [2]: 220 nM
IC50 [3]: 1700 nM
IC50 [4]: 1500 nM

The next lines start with the values.

IC50 [7]: 27 nM
IC50 [8]: 13 nM
IC50 [9]: 148 nM
Compound: COC(=O)/C=C/c1ccc(OCCCNc2cc3c([nH]c4ccccc43)c(-c3ccc(OC)cc3)n2)c(OC)c1

IC50 [7]: 32 nM
IC50 [8]: 17 nM
IC50 [9]: 125 nM
Compound: COC(=O)/C=C/c1ccc(OCCNc2cc3c([nH]c4ccccc43)c(-c3ccc(OC)cc3)n2)c(OC)c1

IC50 [12]: 18 nM
IC50 [5]: 438 nM
IC50 [6]: 431 nM
Compound: Cc1ccc(Cc2cn(CCCCCCC(=O)NO)c3ccc(-c4c(C)noc4C)cc23)cc1

IC50 [12]: 24 nM
IC50 [5]: 127 nM
IC50 [6]: 253 nM
Compound: Cc1cccc(Cc2cn(CCCCCCC(=O)NO)c3ccc(-c4c(C)noc4C)cc23)c1

IC50 [12]: 50 nM
IC50 [5]: > 1000 nM
IC50 [6]: 220 nM
Compound: Cc1ccccc1Cc1cn(CCCCCCC(=O)NO)c2ccc(-c3c(C)noc3C)cc12

IC50 [16]: > 30000 nM
IC50 [17]: > 30000 nM
IC50 [18]: > 30000 nM
IC50 [19]: > 30000 nM
Compound: Nc1ccccc1NC(=O)CCCCCCC(=O)Nc1cccc(-c2cn(-c3ccccc3)nn2)c1

IC50 [12]: 28 nM
IC50 [5]: 139 nM
IC50 [6]: 240 nM
Compound: Cc1noc(C)c1-c1ccc2c(c1)c(CCc1ccccc1)cn2CCCCCCC(=O)NO

IC50 [20]: > 19 nM
IC50 [21]: > 100000 nM
Compound: Nc1ccccc1NC(=O)c1ccc(-c2cn(CCc3ccsc3)nn2)cc1

IC50 [12]: 62 nM
IC50 [5]: > 1000 nM
IC50 [6]: 314 nM
Compound: Cc1ccccc1CCc1cn(CCCCCC(=O)NO)c2ccc(-c3c(C)noc3C)cc12

IC50 [12]: 62 nM
IC50 [5]: 568 nM
IC50 [6]: 222 nM
Compound: Cc1cccc(Cc2cn(CCCCCC(=O)NO)c3ccc(-c4c(C)noc4C)cc23)c1

IC50 [12]: 39 nM
IC50 [5]: 517 nM
IC50 [6]: 341 nM
Compound: Cc1noc(C)c1-c1ccc2c(c1)c(Cc1ccc(F)cc1)cn2CCCCCC(=O)NO
